Experimental data published in patent publication US20230312587A1, “PTERIDINONE COMPOUNDS AND USES THEREOF” (Vertex Pharmaceutical Incorporated, priority 2018, published 2023).

tested on: β-catenin-TCF-mediated reporter transcription activity in Colo 205 cells; test: Colo 205 reporter assay (TCF/LEF luciferase); type: cell-based; details: Homo sapiens, COLO 205, 5 h, Colo 205 TCF/LEF luciferase reporter, five hours after addition of compound; read-out: TCF reporter Colo205 IC50
Text: The compounds of the invention described herein were screened using the assay procedure for β-catenin-TCF-mediated reporter transcription activity described below.
Reporter cell lines were generated by stably transfecting cells of cancer cell lines (e.g., colon cancer) with a plasmid reporter construct (From SABiosciences, a QIAGEN company) that includes TCF/LEF promoter driving expression of the firefly luciferase gene. TCF/LEF reporter constructs were made in which TCF/LEF promoter, a promoter with optimal number of TCF/LEF binding sites designed by SABiosceinces, was linked upstream of the firefly luciferase gene. This construct could also include a puromycin resistance gene as a selectable marker. This construct could also be used to stably transfect Colo 205 cells, a colon cancer cell line having a mutated APC gene that causes a constitutively active β-catenin. A control cell line was generated using another plasmid construct containing the luciferase gene under the control of a CMV basal promoter which is not activated by p-catenin.
Colo 205 Cultured cells with a stably transfected reporter construct were plated at approximately 10,000 cells per well into 384 well multi-well plates for twenty four hours. The testing compounds were then added to the wells in 2-fold serial dilutions using a twenty micromolar top concentration. A series of control wells for each cell type received only compound solvent. Five hours after the addition of compound, reporter activity for luciferase was assayed, by addition of the SteadyGlo luminescence reagent (Promega). The reporter luminescence activity was measured using Pherastar plate reader (BMG Labtech). Readings were normalized to DMSO only treated cells, and normalized activities were then used in the IC50 calculations. The Colo 205 reporter assay data are summarized in Table 45: A<0.3 μM; 0.3 μM≤B<1.0 μM; 1.0 μM≤C<5.0 μM; D≥5.0 μM
Colo 205 reporter assay data has also been obtained for certain R-isomers of Formula (I) wherein R^4 is —H or -D, and wherein the carbon to which R^3 and R^4 are attached (C2 carbon of Formula (X)) has R stereochemistry; such epimeric compounds are represented using the suffix “B” attached to the Compound described herein having the S stereochemistry at the carbon to which R^3 and R^4 are attached: […]

Row | Compound | IC50 [nM]
1 | Cc1nc(NCc2nc(-c3ccccc3)cs2)nc2c1NC(=O)[C@H](C)N2C [Compound 59, (7S)-4,7,8-trimethyl-2-(((4-phenylthiazol-2-yl)methyl)amino)-7,8-dihydropteridin-6(5H)-one] | ≥ 5000
2 | Cc1nc(NCc2ccnc(N3CCCCC3)c2)nc2c1NC(=O)[C@H](C)N2C [Compound 60, (S)-4,7,8-trimethyl-2-(((2-(piperidin-1-yl)pyridin-4-yl)methyl)amino)-7,8-dihydropteridin-6(5H)-one] | ≥ 5000
3 | Cc1nc(NCc2ccnc(N3CCOCC3)c2)nc2c1NC(=O)[C@H](C)N2C [Compound 62, (S)-4,7,8-trimethyl-2-(((2-morpholinopyridin-4-yl)methyl)amino)-7,8-dihydropteridin-6(5H)-one] | ≥ 5000
4 | Cc1nc(NCc2ccc(OCc3ccc(F)cc3)cn2)nc2c1NC(=O)[C@H](C)N2C [Compound 70, (S)-2-(((5-((4-fluorobenzyl)oxy)pyridin-2-yl)methyl)amino)-4,7,8-trimethyl-7,8-dihydropteridin-6(5H)-one] | 300 to 1000
5 | Cc1nc(NCc2cnn([C@@H](C)c3ccc(F)cc3)c2)nc2c1NC(=O)[C@H](C)N2C [Compound 71, (7S)-2-(((1-((S)-1-(4-fluorophenyl)ethyl)-1H-pyrazol-4-yl)methyl)amino)-4,7,8-trimethyl-7,8-dihydropteridin-6(5H)-one] | 300 to 1000
6 | Cc1nc(NCc2cnn(Cc3ccc(F)cc3)c2C)nc2c1NC(=O)[C@H](C)N2C [Compound 74, (7S)-2-(((1-(4-fluorobenzyl)-5-methyl-1H-pyrazol-4-yl)methyl)amino)-4,7,8-trimethyl-7,8-dihydropteridin-6(5H)-one] | 300 to 1000
7 | COc1ccc(Cn2ccc(CNc3nc(C)c4c(n3)N(C)[C@@H](C)C(=O)N4)n2)cc1OC [Compound 76, (7S)-2-(((1-(3,4-dimethoxybenzyl)-1H-pyrazol-3-yl)methyl)amino)-4,7,8-trimethyl-7,8-dihydropteridin-6(5H)-one] | ≥ 5000
8 | Cc1nc(NCc2cnn(Cc3ccccc3C(C)C)c2)nc2c1NC(=O)[C@H](C)N2C [Compound 78, (7S)-2-(((1-(2-isopropylbenzyl)-1H-pyrazol-4-yl)methyl)amino)-4,7,8-trimethyl-7,8-dihydropteridin-6(5H)-one] | < 300
9 | CC(C)c1ccccc1Cn1cc(CNc2ncc3c(n2)N(C)[C@@H](C)C(=O)N3)cn1 [Compound 79, (7S)-2-(((1-(2-isopropylbenzyl)-1H-pyrazol-4-yl)methyl)amino)-7,8-dimethyl-7,8-dihydropteridin-6(5H)-one] | < 300
10 | CC(C)c1cccc(Cn2cc(CNc3ncc4c(n3)N(C)[C@@H](C)C(=O)N4)cn2)c1 [Compound 81, (7S)-2-(((1-(3-isopropylbenzyl)-1H-pyrazol-4-yl)methyl)amino)-7,8-dimethyl-7,8-dihydropteridin-6(5H)-one] | < 300
11 | Cc1nc(NCc2cnn(Cc3ccc(F)nc3)c2)nc2c1N(C)C(=O)[C@H](C)N2C [Compound 82, (7S)-2-(((1-((6-fluoropyridin-3-yl)methyl)-1H-pyrazol-4-yl)methyl)amino)-4,5,7,8-tetramethyl-7,8-dihydropteridin-6(5H)-one] | 300 to 1000
12 | COc1cc(F)ccc1Cn1cc(CNc2nc(C)c3c(n2)N(C)[C@@H](C)C(=O)N3C)cn1 [Compound 84, (7S)-2-(((1-(4-fluoro-2-methoxybenzyl)-1H-pyrazol-4-yl)methyl)amino)-4,5,7,8-tetramethyl-7,8-dihydropteridin-6(5H)-one] | < 300
13 | Cc1nc(NCc2cnn(Cc3ccc(F)cc3O)c2)nc2c1NC(=O)[C@H](C)N2C [Compound 87, (7S)-2-(((1-(4-fluoro-2-hydroxybenzyl)-1H-pyrazol-4-yl)methyl)amino)-4,7,8-trimethyl-7,8-dihydropteridin-6(5H)-one] | < 300
14 | COc1c(F)ccc(Cn2cc(CNc3nc(C)c4c(n3)N(C)[C@@H](C)C(=O)N4)cn2)c1F [Compound 88, (7S)-2-(((1-(2,4-difluoro-3-methoxybenzyl)-1H-pyrazol-4-yl)methyl)amino)-4,7,8-trimethyl-7,8-dihydropteridin-6(5H)-one] | < 300

Now from value to compound:

Row | IC50 [nM] | Compound
15 | < 300 | Cc1nc(NCc2cnn(Cc3ccccc3)c2)nc2c1NC(=O)[C@H](C)N2C [Compound 53, (7S)-2-(((1-benzyl-1H-pyrazol-4-yl)methyl)amino)-4,7,8-trimethyl-7,8-dihydropteridin-6(5H)-one]
16 | < 300 | Cc1nc(NCc2cnn(Cc3ccc(C#N)cc3)c2)nc2c1NC(=O)[C@H](C)N2C [Compound 55, (7S)-4-((4-(((4,7,8-trimethyl-6-oxo-5,6,7,8-tetrahydropteridin-2-yl)amino)methyl)-1H-pyrazol-1-yl)methyl)benzonitrile]
17 | < 300 | C[C@H]1C(=O)Nc2cnc(NCc3ccc(Oc4ccc(F)cc4)nc3)nc2N1C [Compound 56, (7S)-2-(((6-(4-fluorophenoxy)pyridin-3-yl)methyl)amino)-7,8-dimethyl-7,8-dihydropteridin-6(5H)-one]
18 | < 300 | Cc1nc(NCc2ccc(OCc3ccc(F)cc3)nc2)nc2c1NC(=O)[C@H](C)N2C [Compound 57, (7S)-2-(((6-((4-fluorobenzyl)oxy)pyridin-3-yl)methyl)amino)-4,7,8-trimethyl-7,8-dihydropteridin-6(5H)-one]
19 | < 300 | Cc1nc(NCc2cnn(CC3CCC(F)(F)CC3)c2)nc2c1NC(=O)[C@H](C)N2C [Compound 58, (7S)-2-(((1-((4,4-difluorocyclohexyl)methyl)-1H-pyrazol-4-yl)methyl)amino)-4,7,8-trimethyl-7,8-dihydropteridin-6(5H)-one]
20 | < 300 | Cc1nc(NCc2cnn(CC3CC(F)(F)C3)c2)nc2c1NC(=O)[C@H](C)N2C [Compound 61, (7S)-2-(((1-((3,3-difluorocyclobutyl)methyl)-1H-pyrazol-4-yl)methyl)amino)-4,7,8-trimethyl-7,8-dihydropteridin-6(5H)-one]
21 | < 300 | Cc1nc(NCc2cnn(Cc3ccc(F)cc3C#N)c2)nc2c1NC(=O)[C@H](C)N2C [Compound 64, (7S)-5-fluoro-2-((4-(((4,7,8-trimethyl-6-oxo-5,6,7,8-tetrahydropteridin-2-yl)amino)methyl)-1H-pyrazol-1-yl)methyl)benzonitrile]
22 | < 300 | Cc1nc(NCc2cnn(Cc3ccc(F)cc3Cl)c2)nc2c1NC(=O)[C@H](C)N2C [Compound 65, (7S)-2-(((1-(2-chloro-4-fluorobenzyl)-1H-pyrazol-4-yl)methyl)amino)-4,7,8-trimethyl-7,8-dihydropteridin-6(5H)-one]
23 | < 300 | Cc1cc(F)ccc1Cn1cc(CNc2nc(C)c3c(n2)N(C)[C@@H](C)C(=O)N3)cn1 [Compound 66, (7S)-2-(((1-(4-fluoro-2-methylbenzyl)-1H-pyrazol-4-yl)methyl)amino)-4,7,8-trimethyl-7,8-dihydropteridin-6(5H)-one]
24 | < 300 | Cc1nc(NCc2cnn(Cc3ccc(F)cc3C(F)(F)F)c2)nc2c1NC(=O)[C@H](C)N2C [Compound 67, (7S)-2-(((1-(4-fluoro-2-(trifluoromethyl)benzyl)-1H-pyrazol-4-yl)methyl)amino)-4,7,8-trimethyl-7,8-dihydropteridin-6(5H)-one]
25 | < 300 | Cc1nc(NCc2cnn(Cc3ccccc3C(F)(F)F)c2)nc2c1NC(=O)[C@H](C)N2C [Compound 68, (7S)-4,7,8-trimethyl-2-(((1-(2-(trifluoromethyl)benzyl)-1H-pyrazol-4-yl)methyl)amino)-7,8-dihydropteridin-6(5H)-one]
26 | < 300 | Cc1nc(NCc2cnn(Cc3cccc(F)c3)c2)nc2c1NC(=O)[C@H](C)N2C [Compound 69, (7S)-2-(((1-(3-fluorobenzyl)-1H-pyrazol-4-yl)methyl)amino)-4,7,8-trimethyl-7,8-dihydropteridin-6(5H)-one]
27 | < 300 | Cc1nc(NCc2cnn([C@H](C)c3ccc(F)cc3)c2)nc2c1NC(=O)[C@H](C)N2C [Compound 72, (7S)-2-(((1-((R)-1-(4-fluorophenyl)ethyl)-1H-pyrazol-4-yl)methyl)amino)-4,7,8-trimethyl-7,8-dihydropteridin-6(5H)-one]
28 | < 300 | Cc1nn(Cc2ccc(F)cc2)cc1CNc1nc(C)c2c(n1)N(C)[C@@H](C)C(=O)N2 [Compound 73, (7S)-2-(((1-(4-fluorobenzyl)-3-methyl-1H-pyrazol-4-yl)methyl)amino)-4,7,8-trimethyl-7,8-dihydropteridin-6(5H)-one]
29 | < 300 | COc1cc(Cn2cc(CNc3nc(C)c4c(n3)N(C)[C@@H](C)C(=O)N4)cn2)ccc1F [Compound 75, (7S)-2-(((1-(4-fluoro-3-methoxybenzyl)-1H-pyrazol-4-yl)methyl)amino)-4,7,8-trimethyl-7,8-dihydropteridin-6(5H)-one]
